Values joined by “and” are separate entries in the source; they are usually repeats but may differ in a detail not shown here. Equal values may be shown once.
Experiment: Toxicokinetic study of AAI after single oral administration (plasma, UPLC-QQQ-MS/MS, NCA)
Format: in vivo, F344 rats
Details: for Vd / t1/2 / tmax / AUC0→t / CL/F / Cmax: individual pooled profiles (animal pairs), Table S4
Method: For toxicokinetic study, forty-eight […] F344 rats (specific pathogen-free grade) were enrolled in the study, with equal numbers of males and females. All rats were purchased from Charles River Laboratory (Raleigh, NC, USA). All rats were confirmed to be healthy based on a series of physical health examinations. Rats were acclimated for 5 days at a temperature of 20–26 °C, humidity of 40–70% and a 12 h light/dark circle. The rats were randomly divided into four groups (n = 12 per group), with equal numbers of males and females in each group. The allocation was performed separately for each sex (female and male) based on body weight using a stratified randomization method. During the experiment, rats were fasted and had access to water ad libitum. To minimize confounding factors, treatments and measurements were randomized within each session. Cages from different groups were evenly distributed across racks in the same room to reduce bias from light and temperature. This study was approved by the Institutional Animal Care and Use Committee (IACUC) of the National Drug Safety Evaluation Center (Approval No. IACUC-2024-K011, 20 September 2024).
During the experiment, each rat received a single oral administration via gastric gavage. Rats in the control group were administered with 0.5% sodium carboxymethyl cellulose (CMC-Na) suspension. For the treatment groups, rats were administered with gavage solution containing 10, 30 and 100 mg/kg of AAI. The gavage solution was prepared by uniformly dispersing the reference standard of AAI in the 0.5% CMC-Na solution. After oral administration, blood samples were collected from the postorbital vein plex of rats and immediately placed in EDTA tubes. To capture potential reabsorption which might occur long after AAI administration, 15 blood sampling time points were established for each dose group. A sparse sampling approach was employed to avoid excessive blood loss in each rat. For each dosage, 12 rats were subdivided into two groups. For the first group, blood samples were collected from 6 rats at 10, 30, 60, 90, 120, 240, 420, and 600 min after AAI administration; for the second group, blood samples were collected from these 6 rats at 12, 14, 16, 18, 20, 22, and 24 h after AAI administration. Therefore, the experimental design ensured that six biological replicates were obtained for each sampling time point, enabling robust toxicokinetic analysis.
Rat plasma samples were prepared as follows: Blood was centrifuged at 13,200 rpm for 10 min. Then, 25 μL of retrieved plasma was transferred to 2 mL centrifuge tubes, followed by the addition of 75 μL of methanol/acetonitrile solution (v/v, 1∶1) containing indomethacin as internal standard (IS). After vortexing for 2 min and centrifugation for 10 min at 13,200 rpm, the supernatant was used as study samples for quantitative analysis. Quality control samples (QCs) and calibration standards were prepared by spiking blank plasma with different concentrations of AAI standard solution. The QCs and calibration standards were processed using identical procedures as the study samples.
A method of ultra-performance liquid chromatography coupled with triple quadrupole tandem mass spectrometry (UPLC-QQQ-MS/MS) was developed to achieve the quantitation of AAI in rat plasma. The LC-MS/MS analysis was performed using an Acquity UPLC I-Class system coupled with an Xevo TQ XS spectrometer (Waters, Milford, MA, USA). An Acquity UPLC BEH C18 column (2.1 mm × 50 mm, 1.7 μm, Waters, Milford, MA, USA) was employed for chromatographic separation. The mobile phases consisted of water containing 5 mmol/L ammonium formate/0.1% formic acid (A) and acetonitrile (B). The gradient elution was set as follows: 1–4 min, 10–90% B; 4–5 min, 90% B; 5–5.01 min, 90–10% B; 5.01–7 min, 10% B. The flow rate was set at 0.4 mL/min. The column temperature was maintained at 40 °C. A sample volume of 2 μL was injected for analysis. […]

[1] = high-dose (100 mg/kg), 100 mg/kg
[2] = medium-dose (30 mg/kg), 30 mg/kg
[3] = oral dose from 30 mg/kg to 100 mg/kg (3.33-fold)

COc1cccc2c1cc([N+](=O)[O-])c1c(C(=O)O)cc3c(c12)OCO3 [AAI, Aristolochic acid I]
Vd [1]: 23.01 L and 3.33 L and 1.48 L and 11.28 L and 7.23 L and 4.20 L
t1/2 [1]: 20.86 h and 3.11 h and 2.58 h and 3.83 h and 2.80 h and 2.72 h
tmax [1]: 1.00 h
sex-dependent difference in systemic exposure (high-dose and medium-dose groups, female vs male rats): female rats exhibited higher systemic exposure compared to males
AAI plasma concentration (low-dose (10 mg/kg oral), 18 h, individual rats M104,M105,M106,F104,F105,F106, below LLOQ set to zero): 0.00 ng/mL
AAI plasma concentration (low-dose (10 mg/kg oral), 20 h, individual rats M104,M105,M106,F104,F105,F106, below LLOQ set to zero): 0.00 ng/mL
AAI plasma concentration (low-dose (10 mg/kg oral), 22 h, individual rats M104,M105,M106,F104,F105,F106, below LLOQ set to zero): 0.00 ng/mL
AAI plasma concentration (low-dose (10 mg/kg oral), 24 h, individual rats M104,M105,M106,F104,F105,F106, below LLOQ set to zero): 0.00 ng/mL
AUC0→t (low-dose (10 mg/kg), 10 mg/kg): 1221.57 ng·h/mL and 1055.94 ng·h/mL and 876.13 ng·h/mL and 990.96 ng·h/mL
CL/F (low-dose (10 mg/kg), 10 mg/kg): 1.53 L/h and 1.06 L/h and 1.82 L/h and 1.98 L/h and 1.38 L/h and 2.17 L/h
Cmax (low-dose (10 mg/kg), 10 mg/kg): 361.73 ng/mL and 436.18 ng/mL and 640.11 ng/mL and 496.76 ng/mL and 247.55 ng/mL
Vd (low-dose (10 mg/kg), 10 mg/kg): 2.67 L and 1.53 L and 3.03 L and 4.74 L and 1.21 L and 6.96 L
t1/2 (low-dose (10 mg/kg), 10 mg/kg): 1.00 h and 1.15 h and 1.66 h and 0.61 h and 1.21 h and 2.23 h
tmax (low-dose (10 mg/kg), 10 mg/kg): 0.17 h
AAI plasma concentration (medium-dose (30 mg/kg oral), 0.167 h, individual rats M201,M202,M203,F201,F202,F203, 30 mg/kg): 677.97 ng/mL and 891.85 ng/mL and 775.45 ng/mL and 694.87 ng/mL and 747.04 ng/mL and 424.53 ng/mL
AAI plasma concentration (medium-dose (30 mg/kg oral), 0.5 h, individual rats M201,M202,M203,F201,F202,F203, 30 mg/kg): 2114.14 ng/mL and 2496.11 ng/mL and 2604.27 ng/mL and 3133.29 ng/mL and 2919.69 ng/mL and 1424.98 ng/mL
AAI plasma concentration (medium-dose (30 mg/kg oral), 1 h, individual rats M201,M202,M203,F201,F202,F203, 30 mg/kg): 1312.37 ng/mL and 2360.84 ng/mL and 2630.67 ng/mL and 814.02 ng/mL and 1128.36 ng/mL and 777.08 ng/mL
AAI plasma concentration (medium-dose (30 mg/kg oral), 1.5 h, individual rats M201,M202,M203,F201,F202,F203, 30 mg/kg): 508.51 ng/mL and 594.78 ng/mL and 649.03 ng/mL and 685.24 ng/mL and 712.70 ng/mL
AAI plasma concentration (medium-dose (30 mg/kg oral), 2 h, individual rats M201,M202,M203,F201,F202,F203, 30 mg/kg): 634.01 ng/mL and 354.12 ng/mL and 602.07 ng/mL and 438.37 ng/mL and 724.22 ng/mL and 539.10 ng/mL
AAI plasma concentration (medium-dose (30 mg/kg oral), 4 h, individual rats M201,M202,M203,F201,F202,F203, 30 mg/kg): 90.61 ng/mL and 161.84 ng/mL and 196.08 ng/mL and 93.85 ng/mL and 264.87 ng/mL and 468.11 ng/mL
AAI plasma concentration (medium-dose (30 mg/kg oral), 7 h, individual rats M201,M202,M203,F201,F202,F203, 30 mg/kg): 72.74 ng/mL and 83.75 ng/mL and 104.71 ng/mL and 69.29 ng/mL and 131.52 ng/mL and 64.74 ng/mL
AAI plasma concentration (medium-dose (30 mg/kg oral), 10 h, individual rats M201,M202,M203,F201,F202,F203, 30 mg/kg): 26.96 ng/mL and 52.18 ng/mL and 50.62 ng/mL and 70.78 ng/mL and 76.59 ng/mL and 58.20 ng/mL
AAI plasma concentration (medium-dose (30 mg/kg oral), 12 h, individual rats M204,M205,M206,F204,F205,F206, 30 mg/kg): 1.92 ng/mL and 6.45 ng/mL and 1.24 ng/mL and 2.81 ng/mL and 3.93 ng/mL and 3.49 ng/mL
AAI plasma concentration (medium-dose (30 mg/kg oral), 14 h, individual rats M204,M205,M206,F204,F205,F206, 30 mg/kg): 2.74 ng/mL and 3.87 ng/mL and 2.17 ng/mL and 2.87 ng/mL
AAI plasma concentration (medium-dose (30 mg/kg oral), 16 h, individual rats M204,M205,M206,F204,F205,F206, 30 mg/kg): 0.61 ng/mL and 2.32 ng/mL and 0.38 ng/mL and 4.36 ng/mL and 5.23 ng/mL and 10.35 ng/mL
AAI plasma concentration (medium-dose (30 mg/kg oral), 18 h, individual rats M204,M205,M206,F204,F205,F206, 30 mg/kg): 0.83 ng/mL and 5.49 ng/mL and 0.29 ng/mL and 6.28 ng/mL and 4.31 ng/mL and 13.62 ng/mL
AAI plasma concentration (medium-dose (30 mg/kg oral), 20 h, individual rats M204,M205,M206,F204,F205,F206, 30 mg/kg): 0.91 ng/mL and 3.14 ng/mL and 0.30 ng/mL and 7.63 ng/mL and 13.88 ng/mL and 9.00 ng/mL
AAI plasma concentration (medium-dose (30 mg/kg oral), 22 h, individual rats M204,M205,M206,F204,F205,F206, 30 mg/kg): 0.40 ng/mL and 4.38 ng/mL and 0.15 ng/mL and 6.11 ng/mL and 48.38 ng/mL and 35.23 ng/mL
AAI plasma concentration (medium-dose (30 mg/kg oral), 24 h, individual rats M204,M205,M206,F204,F205,F206, 30 mg/kg): 0.23 ng/mL and 8.71 ng/mL
AUC0→t [2]: 4703.09 ng·h/mL and 3783.95 ng·h/mL and 3228.59 ng·h/mL and 3983.95 ng·h/mL and 4581.00 ng·h/mL
CL/F [2]: 1.18 L/h and 0.80 L/h and 1.03 L/h and 1.79 L/h and 1.32 L/h and 1.20 L/h
Cmax [2]: 2919.69 ng/mL and 1424.98 ng/mL and 2114.14 ng/mL and 2496.11 ng/mL and 2630.67 ng/mL and 3133.29 ng/mL
Vd [2]: 5.23 L and 4.46 L and 4.94 L and 5.21 L (2×) and 2.97 L
t1/2 [2]: 3.85 h and 3.33 h and 2.02 h and 2.73 h and 1.71 h and 3.08 h
tmax [2]: 1.00 h
fold increase in AUC0→t [3]: 4.3 fold
fold increase in Cmax [3]: 3.7 fold

From PMC12656546, “Enterohepatic Recirculation-Mediated Reabsorption of Aristolochic Acid I: Revealed by Toxicokinetics and Metabolite Identification in Rats” (Toxics, 2025)
